Results published in patent US8618153B2, “Hepatitis C virus inhibitors” (Bristol-Myers Squibb Company, priority 2009, dated 2013).
Like-named read-outs stand apart in the source and are kept apart here.

Test system: HCV 1b genotype
Assay: HCV Replicon assay (HCV-neo replicon cells), 1b genotype
Format: cell-based
Conditions: Hepatitis C virus, HCV 1b genotype replicon, read-out: 1b EC50 (in μM or range)
Description: An HCV Replicon assay was utilized in the present disclosure, and was prepared, conducted and validated as described in commonly owned PCT/US2006/022197 and in O'Boyle et al., Antimicrob. Agents Chemother., 49(4):1346-1353 (April 2005). Assay methods incorporating luciferase reporters have also been used as described (Apath.com).
HCV-neo replicon cells and replicon cells containing mutations in the NS5A region were used to test the currently described family of compounds. The compounds were determined to have more than 10-fold less inhibitory activity on cells containing mutations than wild-type cells. Thus, the compounds of the present disclosure can be effective in inhibiting the function of the HCV NS5A protein and are understood to be as effective in combinations as previously described in application PCT/US2006/022197 and commonly owned WO 04/014852. Further, the compounds of the present disclosure can be effective against the HCV 1b genotype. It should also be understood that the compounds of the present disclosure can inhibit multiple genotypes of HCV. […] In one embodiment compounds of the present disclosure are inhibitory versus 1a, 1b, 2a, 2b, 3a, 4a, and 5a genotypes. […] The compounds of the present disclosure may inhibit HCV by mechanisms in addition to or other than NS5A inhibition. In one embodiment the compounds of the present disclosure inhibit HCV replicon and in another embodiment the compounds of the present disclosure inhibit NS5A.

Row | SMILES | EC50 (value given as range class) [µM] | EC50 (numeric value) [µM]
1 | COC(=O)N[C@H](C(=O)N1CCC[C@H]1c1ncc(-c2cnc(-c3ncc(-c4cnc([C@@H]5CCCN5C(=O)[C@@H](NC(=O)OC)[C@@H](C)OC)[nH]4)s3)s2)[nH]1)[C@@H](C)OC [Example 19, Methyl ((1S,2R)-2-methoxy-1-(((2S)-2-(4-(5′-(2-((2S)-1-(N-(methoxycarbonyl)-O-methyl-L-threonyl)-2-pyrrolidinyl)-1H-imidazol-4-yl)-2,2′-bi-1,3-thiazol-5-yl)-1H-imidazol-2-yl)-1-pyrrolidinyl)carbonyl)propyl)carbamate] | 0.001 to 0.01 | 
2 | COC(=O)N[C@@H](C)C(=O)N1CCC[C@H]1c1ncc(-c2cnc(-c3ncc(-c4cnc([C@@H]5CCCN5C(=O)[C@H](C)NC(=O)OC)[nH]4)s3)s2)[nH]1 [Example 20, Methyl ((1S)-2-((2S)-2-(4-(5′-(2-((2S)-1-(N-(methoxycarbonyl)-L-alanyl)-2-pyrrolidinyl)-1H-imidazol-4-yl)-2,2′-bi-1,3-thiazol-5-yl)-1H-imidazol-2-yl)-1-pyrrolidinyl)-1-methyl-2-oxoethyl)carbamate] | 0.001 to 0.01 | 
3 | COC(=O)N[C@@H](C(=O)N1CCC[C@H]1c1nc(-c2ncc(-c3cccc(-c4cnc([C@@H]5CCCN5C(=O)[C@H](NC(=O)OC)c5ccccc5)[nH]4)c3)o2)c[nH]1)c1ccccc1 [Example 21, Methyl ((1R)-2-((2S)-2-(4-(3-(2-(2-((2S)-1-((2R)-2-((methoxycarbonyl)amino)-2-phenylacetyl)-2-pyrrolidinyl)-1H-imidazol-4-yl)-1,3-oxazol-5-yl)phenyl)-1H-imidazol-2-yl)-1-pyrrolidinyl)-2-oxo-1-phenylethyl)carbamate] | < 0.001 | 
4 | CN(C)[C@@H](C(=O)N1CCC[C@H]1c1nc(-c2ncc(-c3cccc(-c4cnc([C@@H]5CCCN5C(=O)[C@@H](c5ccccc5)N(C)C)[nH]4)c3)o2)c[nH]1)c1ccccc1 [Example 22, (1R)-2-((2S)-2-(4-(3-(2-(2-((2S)-1-((2R)-2-(Dimethylamino)-2-phenylacetyl)-2-pyrrolidinyl)-1H-imidazol-4-yl)-1,3-oxazol-5-yl)phenyl)-1H-imidazol-2-yl)-1-pyrrolidinyl)-N,N-dimethyl-2-oxo-1-phenylethanamine] | 0.001 to 0.01 | 
5 | COC(=O)N[C@@H](C(=O)N[C@@H](C)c1ncc(-c2cccc(-c3cnc(-c4c[nH]c([C@@H]5CCCN5C(=O)[C@H](NC(=O)OC)c5ccccc5)n4)o3)c2)[nH]1)c1ccccc1 [Example 23, Methyl ((1R)-2-((2S)-2-(4-(5-(3-(2-((1S)-1-(((2R)-2-((methoxycarbonyl)amino)-2-phenylacetyl)amino)ethyl)-1H-imidazol-4-yl)phenyl)-1,3-oxazol-2-yl)-1H-imidazol-2-yl)-1-pyrrolidinyl)-2-oxo-1-phenylethyl) carbamate] | 0.001 to 0.01 | 
6 | C[C@H](NC(=O)[C@@H](c1ccccc1)N(C)C)c1ncc(-c2cccc(-c3cnc(-c4c[nH]c([C@@H]5CCCN5C(=O)[C@@H](c5ccccc5)N(C)C)n4)o3)c2)[nH]1 [Example 24, (2R)-2-(Dimethylamino)-N-((1S)-1-(4-(3-(2-(2-((2S)-1-((2R)-2-(dimethylamino)-2-phenylacetyl)-2-pyrrolidinyl)-1H-imidazol-4-yl)-1,3-oxazol-5-yl)phenyl)-1H-imidazol-2-yl)ethyl)-2-phenylacetamide] |  | 0.00181
7 | COC(=O)N[C@@H](C(=O)N1CCC[C@H]1c1nc(-c2ncc(-c3ccc(-c4cnc([C@@H]5CCCN5C(=O)[C@H](NC(=O)OC)c5ccccc5)[nH]4)cc3)o2)c[nH]1)c1ccccc1 [Example 25, Methyl ((1R)-2-((2S)-2-(4-(4-(2-(2-((2S)-1-((2R)-2-((methoxycarbonyl)amino)-2-phenylacetyl)-2-pyrrolidinyl)-1H-imidazol-4-yl)-1,3-oxazol-5-yl)phenyl)-1H-imidazol-2-yl)-1-pyrrolidinyl)-2-oxo-1-phenylethyl)carbamate] | 0.001 to 0.01 | 
8 | CN(C)[C@@H](C(=O)N1CCC[C@H]1c1nc(-c2ncc(-c3ccc(-c4cnc([C@@H]5CCCN5C(=O)[C@@H](c5ccccc5)N(C)C)[nH]4)cc3)o2)c[nH]1)c1ccccc1 [Example 26, (1R)-2-((2S)-2-(4-(4-(2-(2-((2S)-1-((2R)-2-(Dimethylamino)-2-phenylacetyl)-2-pyrrolidinyl)-1H-imidazol-4-yl)-1,3-oxazol-5-yl)phenyl)-1H-imidazol-2-yl)-1-pyrrolidinyl)-N,N-dimethyl-2-oxo-1-phenylethanamine] | 0.001 to 0.01 | 
9 | COC(=O)N[C@@H](C(=O)N1CCC[C@H]1c1ncc(-c2ccc(-c3cnc(-c4c[nH]c([C@@H]5CCCN5C(=O)OCc5ccccc5)n4)o3)cc2)[nH]1)c1ccccc1 [Example 27, Benzyl (2S)-2-(4-(5-(4-(2-((2S)-1-((2R)-2-((methoxycarbonyl)amino)-2-phenylacetyl)-2-pyrrolidinyl)-1H-imidazol-4-yl)phenyl)-1,3-oxazol-2-yl)-1H-imidazol-2-yl)-1-pyrrolidinecarboxylate] |  | 0.00671
10 | CN(C)[C@@H](C(=O)N1CCC[C@H]1c1ncc(-c2ccc(-c3cnc(-c4c[nH]c([C@@H]5CCCN5C(=O)OCc5ccccc5)n4)o3)cc2)[nH]1)c1ccccc1 [Example 28, Benzyl (2S)-2-(4-(5-(4-(2-((2S)-1-((2R)-2-((N,N-dimethyl)amino)-2-phenylacetyl)-2-pyrrolidinyl)-1H-imidazol-4-yl)phenyl)-1,3-oxazol-2-yl)-1H-imidazol-2-yl)-1-pyrrolidinecarboxylate] | 0.001 to 0.01 | 
11 | COC(=O)N[C@@H](C(=O)N1CCC[C@H]1c1ncc(C#CC#Cc2cnc([C@@H]3CCCN3C(=O)[C@H](NC(=O)OC)c3ccccc3)[nH]2)[nH]1)c1ccccc1 [Example 29, Dimethyl (1R,1′R)-2,2′-((2S,2′S)-2,2′-(5,5′-(buta-1,3-diyne-1,4-diyl)bis(1H-imidazole-5,2-diyl))bis(pyrrolidine-2,1-diyl))bis(2-oxo-1-phenylethane-2,1-diyl)dicarbamate] | < 0.001 | 
12 | O=C([C@@H](c1ccccc1)N1CCCCC1)N1CCC[C@H]1c1ncc(C#CC#Cc2cnc([C@@H]3CCCN3C(=O)[C@@H](c3ccccc3)N3CCCCC3)[nH]2)[nH]1 [Example 30, (2R,2′R)-1,1′-((2S,2′S)-2,2′-(5,5′-(Buta-1,3-diyne-1,4-diyl)bis(1H-imidazole-5,2-diyl))bis(pyrrolidine-2,1-diyl))bis(2-phenyl-2-(piperidin-1-yl)ethanone)] | < 0.001 | 
13 | COC(=O)N[C@H](C(=O)N1CCC[C@H]1c1ncc(C#CC#Cc2cnc([C@@H]3CCCN3C(=O)[C@@H](NC(=O)OC)C(C)C)[nH]2)[nH]1)C(C)C [Example 31, Dimethyl (2S,2′S)-1,1′-((2S,2′S)-2,2′-(5,5′-(buta-1,3-diyne-1,4-diyl)bis(1H-imidazole-5,2-diyl))bis(pyrrolidine-2,1-diyl))bis(3-methyl-1-oxobutane-2,1-diyl)dicarbamate] | < 0.001 | 
14 | COC(=O)N[C@@H](C)C(=O)N1CCC[C@H]1c1ncc(C#CC#Cc2cnc([C@@H]3CCCN3C(=O)[C@H](C)NC(=O)OC)[nH]2)[nH]1 [Example 32, Dimethyl (2S,2′S)-1,1′-((2S,2′S)-2,2′-(5,5′-(buta-1,3-diyne-1,4-diyl)bis(1H-imidazole-5,2-diyl))bis(pyrrolidine-2,1-diyl))bis(1-oxopropane-2,1-diyl)dicarbamate] | 0.01 to 10 | 
15 | COC(=O)N[C@H](C(=O)N1CCC[C@H]1c1ncc(C#Cc2ccc(-c3ccc(-c4cnc([C@@H]5CCCN5C(=O)[C@@H](NC(=O)OC)C(C)C)[nH]4)cc3)cc2)[nH]1)C(C)C [Example 33, Methyl ((1S)-1-(((2S)-2-(4-(4′-((2-((2S)-1-((2S)-2-((methoxycarbonyl)amino)-3-methylbutanoyl)-2-pyrrolidinyl)-1H-imidazol-4-yl)ethynyl)-4-biphenylyl)-1H-imidazol-2-yl)-1-pyrrolidinyl)carbonyl)-2-methylpropyl)carbamate] | < 0.001 | 
16 | COC(=O)N[C@H](C(=O)N1[C@@H]2C[C@@H]2C[C@H]1c1ncc(C#CC#Cc2cnc([C@@H]3C[C@H]4C[C@H]4N3C(=O)[C@@H](NC(=O)OC)C3CCOCC3)[nH]2)[nH]1)C1CCOCC1 [Example 34, Dimethyl (1,3-butadiyne-1,4-diylbis(1H-imidazole-4,2-diyl(1R,3S,5R)-2-azabicyclo[3.1.0]hexane-3,2-diyl((1S)-2-oxo-1-(tetrahydro-2H-pyran-4-yl)-2,1-ethanediyl)))biscarbamate] | 0.001 to 0.01 | 
17 | CCN(CC)[C@@H](C(=O)N1CCC[C@H]1c1nc(/C=C/c2ccc(/C=C/c3cnc([C@@H]4CCCN4C(=O)[C@@H](c4ccccc4)N(CC)CC)[nH]3)cc2)c[nH]1)c1ccccc1 [Example 35, (1R)-2-((2S)-2-(4-((E)-2-(4-((E)-2-(2-((2S)-1-((2R)-2-(diethylamino)-2-phenylacetyl)-2-pyrrolidinyl)-1H-imidazol-5-yl)vinyl)phenyl)vinyl)-1H-imidazol-2-yl)-1-pyrrolidinyl)-N,N-diethyl-2-oxo-1-phenylethanamine] |  | 0.00014
18 | COC(=O)N[C@@H](C(=O)N1CCC[C@H]1c1nc(/C=C/c2ccc(/C=C/c3cnc([C@@H]4CCCN4C(=O)[C@H](NC(=O)OC)c4ccccc4)[nH]3)cc2)c[nH]1)c1ccccc1 [Example 36, dimethyl (1,4-phenylenebis((E)-2,1-ethenediyl-1H-imidazole-4,2-diyl(2S)-2,1-pyrrolidinediyl((1R)-2-oxo-1-phenyl-2,1-ethanediyl)))biscarbamate] | < 0.001 | 
